Test results: US11806343B2, “Inhibitors of DUX4 induction for regulation of muscle function” (Sonic Master Limited, priority 2017, dated 2023)
“And” between values parts separate entries of the source, which are not always exact repeats. Identical values can stand only once.

Legend:
[1] = target: DUX4; experiment: DUX4 expression downregulation by kinase family inhibitors (Table 1); format: cell-based; conditions: for EC50: DUX4 reduction; for Quantitation % of DUX4 reduction @the lowest significant [C]: at the lowest significant concentration; for lowest significant [C]: concentration in brackets at which the % DUX4 reduction is given
[2] = test system: DUX4; experiment: FSHD hESC-SkM immunocytochemistry, DUX4 expression; format: cell-based, human; conditions: Genea049 hESC-SkM
Method: (§1) FIG. 6 provides an example of a screening and culturing workflow for hESC-SkM assays. At Day 0, hESC-derived myoblasts are thawed into a 96-well plate in myoblast medium (Genea BioCells). On Day 2, the medium is replaced with new myoblast medium containing 1.15 μM. Decitabine. […] On Day 7, the myotubes are analyzed. For example, the myotubes may be analyzed for MHC expression or DUX4 expression.
(§2) Genea049 FSHD-affected human Embryonic Stem Cells (hESCs) were differentiated using Genea's myogenic differentiation protocol (Caron et 2015) to the myoblast stage and cryopreserved. Frozen myoblasts were resuscitated and 4500 cells were plated into each well of a 96-well collagen I coated tissue culture plate in myoblast medium. After two days of cell growth medium was changed to 100 μL per well myoblast medium containing 1.15 μM Decitabine. […] Cells were allowed to differentiate to myotubes for four additional days then were fixed and analyzed for quantification of DUX4 expression, Myosin Heavy Chain expression, and nuclei number. Triplicate wells of each condition were averaged.
as §2, with “et al.,” for “et”, “number by high-content imaging.” for “number.”

[3] = test system: Genea049 FSHD hESC-SkM; experiment: FSHD hESC-SkM immunocytochemistry, Myosin Heavy Chain and nuclei (myogenic inhibition/toxicity); format: cell-based, human
Method: as §1, §2
as §2, with “et al.,” for “et”, “number by high-content imaging.” for “number.”

| EC50 [1] | SMILES | Quantitation % of DUX4 reduction @the lowest significant [C] [1] | lowest significant [C] [1] [µM] | DUX4 expression ([2]; 100 nM, four days of culture during myotube formation) | DUX4 expression, dose curve ([2]; six concentration points 10 nM-3 μM, four days) | Myosin Heavy Chain expression and nuclei count, dose curve ([3]; 10 nM-3 μM, four days) | Myosin Heavy Chain expression and nuclei count ([3]; 100 nM, four days of culture) |
| --- | --- | --- | --- | --- | --- | --- | --- |
| 153 nM and 287 nM | CC(C)(C)n1nc(-c2ccc(Cl)cc2)c2c(N)ncnc21 [PP2] | 41.77% and 66.61% |  |  |  |  |  |
|  | COc1cc(Nc2c(C#N)cnc3cc(OCCCN4CCN(C)CC4)c(OC)cc23)c(Cl)cc1Cl [Bosutinib] | 70.58% | 3 |  |  |  |  |
| 132 nM | Cc1ccc(NC(=O)c2ccc(CN3CC[C@H](N(C)C)C3)c(C(F)(F)F)c2)cc1Nc1nccc(-c2cncnc2)n1 [Bafetinib] | 67.90% | 2.08 |  |  |  |  |
|  | Cc1cn(-c2cc(NC(=O)c3ccc(C)c(Nc4nccc(-c5cccnc5)n4)c3)cc(C(F)(F)F)c2)cn1 [Nilotinib] | 76.71% | 5 |  |  |  |  |
| 175 nM | Cc1ccc(NC(=O)c2ccc(CN3CC[C@H](N(C)C)C3)c(C(F)(F)F)c2)cc1Nc1ncc(-c2cncnc2)cn1 [Lyn-IN-1] | 70.73% | 0.88 |  |  |  |  |
|  | Cc1ccc(NC(=O)c2ccc(CN3CCN(C)CC3)cc2)cc1Nc1nccc(-c2cccnc2)n1 [Imatinib] | 61.13% |  |  |  |  |  |
|  | NS(=O)(=O)OC[C@@H]1C[C@@H](n2ccc3c(N[C@H]4CCc5ccccc54)ncnc32)C[C@@H]1O [GBC0772, MLN4924] |  |  | decreased DUX4 expression | dose-dependent decreased DUX4 expression | decreased Myosin Heavy Chain expression and nuclei count | decreased Myosin Heavy Chain expression and nuclei count |
| 82 nM | Cc1ncc(NC(=O)c2ccc(CN3CCN(C)CC3)c(C(F)(F)F)c2)cc1Nc1nccc(-c2cccnc2)n1 [Flumatinib] | 76.09% | 2.08 |  |  |  |  |
